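48-hour exposure; five concentrations; linearly interpolated endpoints. GI50 = concentration required for 50% inhibition of growth. TGI marks complete inhibition of growth.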
Columns and labels:
Assay in all cases: DTP human tumour cell line panel, 48 h
HOP-62 NSCLC = system: HOP-62 NSCLC
BT-549 breast = system: BT-549 breast
NCI-H23 lung = system: NCI-H23 lung
M14 melanoma = system: M14 melanoma
NCI/ADR-RES ovarian = system: NCI/ADR-RES ovarian
SNB-19 CNS = system: SNB-19 CNS
KM12 colon = system: KM12 colon
HCT-116 colon = system: HCT-116 colon
OVCAR-4 ovarian = system: OVCAR-4 ovarian
K-562 leukemia = system: K-562 leukemia

| SMILES | TGI (HOP-62 NSCLC) | TGI (BT-549 breast) | TGI (NCI-H23 lung) | TGI (M14 melanoma) | TGI (NCI/ADR-RES ovarian) | TGI (SNB-19 CNS) | TGI (KM12 colon) | TGI (HCT-116 colon) | TGI (OVCAR-4 ovarian) | TGI (K-562 leukemia) | GI50 (BT-549 breast) | GI50 (NCI-H23 lung) | GI50 (NCI/ADR-RES ovarian) |
| --- | --- | --- | --- | --- | --- | --- | --- | --- | --- | --- | --- | --- | --- |
| O=C1/C(=C/c2ccccc2)CCc2ccc(Cl)nc21 | 42 µM | 32.1 µM | 45.5 µM | 23.6 µM | > 63.7 µM | 41.5 µM | 7.15 µM | 7 µM | > 83.5 µM | 6.78 µM |  |  |  |
| Clc1nc(-[n+]2ccc(-c3ccncc3)cc2)nc(Nc2ccccc2)c1Cl | > 100 µM | > 100 µM | > 100 µM | > 100 µM | > 100 µM | > 100 µM | > 100 µM | > 100 µM | > 100 µM | > 100 µM |  |  |  |
| N#Cc1c(Nc2ccc(F)cc2)[n+]([O-])c2ccc(Cl)cc2[n+]1[O-] | 42.2 µM | 74.4 µM | 23.4 µM | 44.2 µM | 5.37 µM | > 100 µM | > 100 µM | > 100 µM | 5.71 µM | 8.56 µM |  |  |  |
| COc1ccc(C2(c3ccc(OC)cc3)OC(=O)c3cccc4cccc2c34)cc1 | > 100 µM | > 100 µM | > 100 µM | > 100 µM | 7.55 µM | > 100 µM | > 100 µM | > 100 µM | > 100 µM | > 100 µM |  |  |  |
| C/C(=N\NC(N)=O)C(CN1CCCCC1)C(c1ccccc1)c1c(O)c2ccccc2oc1=O (stereo not drawn) | > 100 µM | > 100 µM | > 100 µM | > 100 µM | > 100 µM | > 100 µM | > 100 µM | > 100 µM | > 100 µM | > 100 µM | 86.7 µM | > 100 µM | > 100 µM |
| CCc1nnc(-n2c(C)nc3cc(Cl)ccc3c2=O)s1 | > 100 µM | > 100 µM | > 100 µM | > 100 µM | > 100 µM | > 100 µM | > 100 µM | > 100 µM | > 100 µM | > 100 µM |  |  |  |
| CC(CCC(=O)O)[C@H]1CCC2[C@H]3C(CC[C@@]21C)[C@@]1(C)CCC(O)C[C@H]1C[C@@H]3O (stereo partly drawn) | > 100 µM | > 100 µM | > 100 µM | > 100 µM | > 100 µM | > 100 µM | > 100 µM | > 100 µM | > 100 µM | > 100 µM |  |  |  |
| C/C(=C/CO[Si](C)(C)C(C)(C)C)C(=O)N(C)c1ccccc1I | 36.5 µM | 35.8 µM | 41.2 µM | 28.6 µM | 37.1 µM | 30.6 µM | 33.6 µM | 25.8 µM | 31.2 µM | > 100 µM |  |  |  |
| CC1=C(C(=O)OCCc2ccc([N+](=O)[O-])cc2)C(c2ccccc2[N+](=O)[O-])C(C(=O)OC(C)C)=C(C)N1 (stereo not drawn) | > 100 µM | 71.2 µM | > 100 µM | 36.7 µM | 20 µM | > 100 µM | > 100 µM | > 100 µM | > 100 µM | > 100 µM |  |  |  |
| O=C(O)/C=C(/CC(=O)O)C(=O)O | 40.1 µM | 43.7 µM | 57.2 µM | 44.2 µM | 46.1 µM | 62.3 µM | 61.2 µM | 35.6 µM | 65.3 µM | 42.6 µM |  |  |  |
| CC[C@]12C=CCN3CCC4(c5cc(N=Nc6ccccc6)c(OC)cc5N(C)[C@H]4[C@@](O)(C(=O)OC)[C@@H]1OC(C)=O)[C@@H]32 (stereo partly drawn) | 35.2 µM | 35.6 µM | 30.5 µM | 43.6 µM | 55.6 µM | 47.2 µM | 37.7 µM | 31.2 µM | 38.8 µM | 64.2 µM |  |  |  |
| Cc1cc2ccccc2n1CC(=O)NCC(C)C | > 100 µM | > 100 µM | > 100 µM | > 100 µM | > 100 µM | > 100 µM | > 100 µM | > 100 µM | > 100 µM | > 100 µM |  |  |  |
| CCCn1c(C23CC4CC(CC(C4)C2)C3)nc2ccc(Cl)cc2c1=O | 70.1 µM | > 100 µM | > 100 µM | > 100 µM | > 100 µM | > 100 µM | > 100 µM | > 100 µM | > 100 µM | > 100 µM |  |  |  |
| O=C(/C=C/c1ccc(-c2ccccc2[N+](=O)[O-])o1)NCc1ccc(C(=O)NCCc2ccccc2)cc1 | > 100 µM | > 100 µM | > 100 µM | > 100 µM | > 100 µM | > 100 µM | > 100 µM | > 100 µM | > 100 µM | > 100 µM |  |  |  |
| Cc1ccc(C(=O)N(C(C)C)C(C)C)cc1N=NN(C)C | > 100 µM | > 100 µM | > 100 µM | > 100 µM | > 100 µM | > 100 µM | > 100 µM | > 100 µM | > 100 µM | > 100 µM |  |  |  |
| O=C(c1ccc2ccccc2c1)C1S(=O)(=O)OCCOS1(=O)=O | > 100 µM | > 100 µM | > 100 µM | > 100 µM | > 100 µM | > 100 µM | > 100 µM | > 100 µM | > 100 µM | > 100 µM |  |  |  |
| O=C(C1=C(C(=O)c2ccccc2)SC2(S1)C(C(=O)c1ccccc1)=C(C(=O)c1ccccc1)Sc1c2ssc1=O)c1ccccc1 | > 100 µM | > 100 µM | > 100 µM | > 100 µM | > 100 µM | 66.5 µM | 92.7 µM | > 100 µM | > 100 µM | > 100 µM |  |  |  |
| CCC1(CC)C(=O)CC[C@@]2(C)C1=CC[C@H]1[C@@H]3CC[C@H](O)[C@@]3(C)CC[C@@H]12 | 37 µM | > 100 µM | > 100 µM | > 100 µM | > 100 µM | > 100 µM | > 100 µM | 63.8 µM | > 100 µM | 37.3 µM |  |  |  |
| COc1ccc(/C=C/c2cc(O)cc(OC)c2)cc1 | > 100 µM | > 100 µM | > 100 µM | > 100 µM | > 100 µM | > 100 µM | > 100 µM | > 100 µM | > 100 µM | > 100 µM |  |  |  |
| Cc1ccc(S(=O)(=O)n2cncc2CO)cc1 | > 100 µM | > 100 µM | > 100 µM | > 100 µM | > 100 µM | > 100 µM | > 100 µM | > 100 µM | > 100 µM | > 100 µM |  |  |  |
| CC1(C)COC(c2cccc(C3=NC(C)(C)CO3)c2Br)=N1 | > 100 µM | > 100 µM | > 100 µM | > 100 µM | > 100 µM | > 100 µM | > 100 µM | > 100 µM | > 100 µM | > 100 µM |  |  |  |
| CCOC(=O)c1ccc2nc(NC(=O)COC(=O)CSc3nc(C)cc(C)n3)sc2c1 | 50.5 µM | > 100 µM | > 100 µM | > 100 µM | > 100 µM | > 100 µM | > 100 µM | > 100 µM | > 100 µM | > 100 µM |  |  |  |
| Nc1ccc2c(c1)C(=O)c1ccccc1-2 | > 100 µM | 83.5 µM | > 100 µM | > 100 µM | > 100 µM | > 100 µM | > 100 µM | > 100 µM | > 100 µM | > 100 µM |  |  |  |
| CCOC(=O)c1ccc(C(=O)C(C(C)=O)C(=O)OC(C)(C)C)n1C (stereo not drawn) | > 100 µM | > 100 µM | > 100 µM | > 100 µM | > 100 µM | > 100 µM | > 100 µM | > 100 µM | > 100 µM | > 100 µM |  |  |  |
| c1ccc(CCN2CCCCCC2)nc1 | > 100 µM | > 100 µM | > 100 µM | > 100 µM | > 100 µM | > 100 µM | > 100 µM | > 100 µM | > 100 µM | > 100 µM |  |  |  |
| OCC1OC(n2cnc3cccnc32)CC1O (stereo not drawn) | > 100 µM | > 100 µM | > 100 µM | > 100 µM | > 100 µM | > 100 µM | > 100 µM | > 100 µM | > 100 µM | > 100 µM |  |  |  |
